From US20220387604A1, “SELECTIVE DUAL HISTONE DEACETYLASE 6/8 (HDAC6/8) DEGRADERS AND METHODS OF USE THEREOF” (DANA-FARBER CANCER INSTITUTE, INC., priority 2019, published 2022)
“Also recorded” adds a separate entry of the source.

Legend:
Type in all cases: biochemical
[1] = molecular target: T1, HDAC1 (Homo sapiens, UniProt Q13547); assay: HDAC enzymatic assay (Reaction Biology), HDAC1
T1 construct: purchased Reaction Biology
Experimental: (§1) Compound 1 was tested in an enzymatic assay from Reaction Biology® against 10 HDAC isoforms. The IC50 values were derived from a 10-dose response curve.
(§2) Base Reaction buffer: 50 mM Tris-HCl, pH8.0, 137 mM NaCl, 2.7 mM KCl, and 1 mM MgCl2, Add fresh: 1 mg/ml BSA, 1% DMSO
(§3) Fluorogenic HDAC General Substrate (HDAC1, HDAC2, HDAC3, HDAC6, HDAC10, and HDAC11): 50 μM, Arg-His-Lys-Lys(Ac)-AMC
(§4) 1. Delivered 2× enzyme in wells of reaction plate except in the control wells and added buffer to control wells. 2. Delivered compounds in 100% DMSO into the enzyme mixture by Acoustic technology (Echo550; nanoliter range). Spin down and pre-incubation. 3. Delivered 2× Substrate Mixture (Fluorogenic HDAC Substrate and co-factor if applicable) in all reaction wells to initiate the reaction. Spin and shake. 4. Incubated for 30 min for Class 2A, 1 h for HDAC1, 2, 3, and 6, and 2 h for the rest of HDAC isoforms and SIRTs at 30° C. with seal.
(§5) 5. Added Developer with Trichostatin A (or Nicotinamide for SIRTs) to stop the reaction and to generate fluorescent color. 6. The fluorescence that was generated was detected with excitation (Ex) at […] and emission (Em) at 460 nM by the EnVision Multilabel Plate Reader (PerkinElmer®, Santa Clara, Calif., USA).
(§6) IC50 values were derived from a 10-dose response curve.

[2] = molecular target: T2, HDAC2 (Homo sapiens, UniProt Q92769); assay: HDAC enzymatic assay (Reaction Biology), HDAC2
T2 construct: purchased Reaction Biology
Experimental: as §1, §2, §3, §4, §5, §6

[3] = molecular target: T3, HDAC3 (Homo sapiens, UniProt O15379); assay: HDAC enzymatic assay (Reaction Biology), HDAC3
T3 construct: purchased Reaction Biology
Experimental: as §1, §2, §3, §4, §5, §6

[4] = molecular target: T4, HDAC8 (Homo sapiens, UniProt Q9BY41); assay: HDAC enzymatic assay (Reaction Biology), HDAC8
T4 construct: purchased Reaction Biology
T4 sequence (Q9BY41 1-377): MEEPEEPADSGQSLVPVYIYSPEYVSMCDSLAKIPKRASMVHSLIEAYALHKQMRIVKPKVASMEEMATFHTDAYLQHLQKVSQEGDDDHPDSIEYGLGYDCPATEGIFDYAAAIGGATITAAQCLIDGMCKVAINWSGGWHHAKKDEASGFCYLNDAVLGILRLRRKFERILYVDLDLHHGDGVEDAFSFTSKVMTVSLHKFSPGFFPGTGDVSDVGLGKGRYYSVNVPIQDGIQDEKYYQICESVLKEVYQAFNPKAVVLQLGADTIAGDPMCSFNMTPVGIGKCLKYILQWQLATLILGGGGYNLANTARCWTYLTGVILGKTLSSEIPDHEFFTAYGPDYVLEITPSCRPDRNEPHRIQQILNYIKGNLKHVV
Experimental: as §1, §2
(HDAC8 only substrate: 50 μM, Arg-His-Lys(Ac)-Lys(Ac))-AMC
as §4, §5, §6

[5] = molecular target: T5, HDAC5 (Homo sapiens, UniProt Q9UQL6); assay: HDAC enzymatic assay (Reaction Biology), HDAC5
T5 construct: purchased Reaction Biology
Experimental: as §1, §2
(§7) Class2A Substrate (HDAC4, HDAC5, HDAC7, and HDAC9): Boc-Lys(trifluoroacetyl)-AMC
as §4, §5, §6

[6] = molecular target: T6, HDAC4 (Homo sapiens, UniProt P56524); assay: HDAC enzymatic assay (Reaction Biology), HDAC4; conditions: summary of Table 1
T6 construct: purchased Reaction Biology
Experimental: as §1, §2, §7, §4, §5, §6

[7] = molecular target: T7, HDAC7 (Homo sapiens, UniProt Q8WUI4); assay: HDAC enzymatic assay (Reaction Biology), HDAC7; conditions: summary of Table 1
T7 construct: purchased Reaction Biology
T7 sequence (Q8WUI4 1-952): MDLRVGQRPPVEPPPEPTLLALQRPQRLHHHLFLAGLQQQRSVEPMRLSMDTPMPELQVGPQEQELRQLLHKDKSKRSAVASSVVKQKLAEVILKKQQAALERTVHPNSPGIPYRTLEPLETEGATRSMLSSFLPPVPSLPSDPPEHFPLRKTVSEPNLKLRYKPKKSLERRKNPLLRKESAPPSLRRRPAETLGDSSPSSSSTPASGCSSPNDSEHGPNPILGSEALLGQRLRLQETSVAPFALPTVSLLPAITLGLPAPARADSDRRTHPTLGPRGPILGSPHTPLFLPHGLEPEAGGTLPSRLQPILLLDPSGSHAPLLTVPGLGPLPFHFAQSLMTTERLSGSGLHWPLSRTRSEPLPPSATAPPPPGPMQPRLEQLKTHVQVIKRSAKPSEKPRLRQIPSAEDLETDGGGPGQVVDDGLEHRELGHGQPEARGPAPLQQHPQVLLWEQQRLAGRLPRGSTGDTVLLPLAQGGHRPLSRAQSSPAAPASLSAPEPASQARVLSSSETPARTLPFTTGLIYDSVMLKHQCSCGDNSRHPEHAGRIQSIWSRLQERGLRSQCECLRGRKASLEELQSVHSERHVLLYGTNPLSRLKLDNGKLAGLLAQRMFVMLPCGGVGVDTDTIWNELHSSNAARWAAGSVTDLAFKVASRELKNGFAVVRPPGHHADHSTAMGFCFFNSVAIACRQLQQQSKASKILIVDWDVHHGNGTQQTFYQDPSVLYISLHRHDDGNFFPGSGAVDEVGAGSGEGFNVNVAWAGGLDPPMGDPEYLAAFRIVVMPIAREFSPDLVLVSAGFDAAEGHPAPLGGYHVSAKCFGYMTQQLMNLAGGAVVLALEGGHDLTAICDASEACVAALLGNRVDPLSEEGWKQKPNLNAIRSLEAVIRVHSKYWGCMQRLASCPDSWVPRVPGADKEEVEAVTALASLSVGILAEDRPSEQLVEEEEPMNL
Experimental: as §1, §2, §7, §4, §5, §6

[8] = molecular target: T8, HDAC9 (Homo sapiens, UniProt Q9UKV0); assay: HDAC enzymatic assay (Reaction Biology), HDAC9; conditions: summary of Table 1
T8 construct: purchased Reaction Biology
Experimental: as §1, §2, §7, §4, §5, §6

T5 sequence (Q9UQL6 whole entry): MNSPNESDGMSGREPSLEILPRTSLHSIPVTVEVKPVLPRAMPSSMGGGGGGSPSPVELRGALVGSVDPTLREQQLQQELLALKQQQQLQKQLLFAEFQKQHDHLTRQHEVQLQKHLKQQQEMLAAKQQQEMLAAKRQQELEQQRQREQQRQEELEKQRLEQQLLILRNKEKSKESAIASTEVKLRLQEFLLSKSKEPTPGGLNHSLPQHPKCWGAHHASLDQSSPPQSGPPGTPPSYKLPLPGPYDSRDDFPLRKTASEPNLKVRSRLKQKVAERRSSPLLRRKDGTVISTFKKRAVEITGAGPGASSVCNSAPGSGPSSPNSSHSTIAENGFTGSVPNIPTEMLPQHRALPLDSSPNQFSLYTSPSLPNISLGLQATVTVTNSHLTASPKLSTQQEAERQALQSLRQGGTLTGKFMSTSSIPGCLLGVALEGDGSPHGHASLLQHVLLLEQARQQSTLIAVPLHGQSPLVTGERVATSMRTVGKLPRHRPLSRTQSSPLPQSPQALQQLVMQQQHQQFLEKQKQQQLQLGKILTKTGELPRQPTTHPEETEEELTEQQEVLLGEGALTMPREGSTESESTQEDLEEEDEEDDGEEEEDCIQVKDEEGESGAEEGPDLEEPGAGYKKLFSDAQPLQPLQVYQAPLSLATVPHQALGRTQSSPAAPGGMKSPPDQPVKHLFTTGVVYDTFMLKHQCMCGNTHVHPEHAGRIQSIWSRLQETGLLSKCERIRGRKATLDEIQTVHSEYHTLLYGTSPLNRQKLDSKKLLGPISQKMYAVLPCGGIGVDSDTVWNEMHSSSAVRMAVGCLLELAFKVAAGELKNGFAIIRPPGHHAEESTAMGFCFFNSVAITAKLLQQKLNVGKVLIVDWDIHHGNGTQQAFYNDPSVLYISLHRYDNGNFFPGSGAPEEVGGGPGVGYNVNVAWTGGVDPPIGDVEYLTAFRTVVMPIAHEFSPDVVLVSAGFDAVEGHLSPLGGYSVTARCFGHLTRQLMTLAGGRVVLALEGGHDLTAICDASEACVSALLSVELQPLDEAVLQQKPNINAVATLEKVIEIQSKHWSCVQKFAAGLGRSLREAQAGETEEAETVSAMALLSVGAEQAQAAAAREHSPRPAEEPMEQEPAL
T3 sequence (O15379 whole entry): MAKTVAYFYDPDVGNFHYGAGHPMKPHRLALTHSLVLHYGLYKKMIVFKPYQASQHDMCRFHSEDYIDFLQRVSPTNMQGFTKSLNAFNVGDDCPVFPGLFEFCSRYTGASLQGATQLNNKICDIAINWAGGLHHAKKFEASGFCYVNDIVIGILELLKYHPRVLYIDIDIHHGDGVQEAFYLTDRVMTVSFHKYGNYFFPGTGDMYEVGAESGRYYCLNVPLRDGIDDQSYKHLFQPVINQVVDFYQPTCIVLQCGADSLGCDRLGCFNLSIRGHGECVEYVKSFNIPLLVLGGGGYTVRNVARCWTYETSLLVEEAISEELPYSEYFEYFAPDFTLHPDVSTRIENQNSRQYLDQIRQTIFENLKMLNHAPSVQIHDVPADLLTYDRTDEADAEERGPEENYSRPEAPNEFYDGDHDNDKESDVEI
T3 sequence (Q9Y618 395-489 partner limits assumed): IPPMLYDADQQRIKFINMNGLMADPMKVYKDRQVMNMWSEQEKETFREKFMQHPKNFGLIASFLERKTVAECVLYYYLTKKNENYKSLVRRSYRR
T1 sequence (Q13547 whole entry): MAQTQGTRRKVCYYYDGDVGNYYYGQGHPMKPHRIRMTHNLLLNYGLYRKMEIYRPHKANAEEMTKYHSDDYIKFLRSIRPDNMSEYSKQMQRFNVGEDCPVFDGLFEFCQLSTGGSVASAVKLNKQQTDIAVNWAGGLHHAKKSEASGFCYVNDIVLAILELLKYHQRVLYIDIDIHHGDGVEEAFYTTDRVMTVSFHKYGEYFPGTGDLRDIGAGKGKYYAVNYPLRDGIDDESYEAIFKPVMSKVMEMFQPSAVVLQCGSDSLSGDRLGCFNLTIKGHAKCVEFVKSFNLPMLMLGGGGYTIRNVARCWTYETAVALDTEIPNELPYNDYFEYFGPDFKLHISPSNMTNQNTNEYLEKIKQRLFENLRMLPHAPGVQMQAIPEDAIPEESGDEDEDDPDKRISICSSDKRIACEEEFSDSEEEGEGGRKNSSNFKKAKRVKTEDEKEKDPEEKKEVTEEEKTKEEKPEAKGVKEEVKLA
T2 sequence (Q92769 whole entry): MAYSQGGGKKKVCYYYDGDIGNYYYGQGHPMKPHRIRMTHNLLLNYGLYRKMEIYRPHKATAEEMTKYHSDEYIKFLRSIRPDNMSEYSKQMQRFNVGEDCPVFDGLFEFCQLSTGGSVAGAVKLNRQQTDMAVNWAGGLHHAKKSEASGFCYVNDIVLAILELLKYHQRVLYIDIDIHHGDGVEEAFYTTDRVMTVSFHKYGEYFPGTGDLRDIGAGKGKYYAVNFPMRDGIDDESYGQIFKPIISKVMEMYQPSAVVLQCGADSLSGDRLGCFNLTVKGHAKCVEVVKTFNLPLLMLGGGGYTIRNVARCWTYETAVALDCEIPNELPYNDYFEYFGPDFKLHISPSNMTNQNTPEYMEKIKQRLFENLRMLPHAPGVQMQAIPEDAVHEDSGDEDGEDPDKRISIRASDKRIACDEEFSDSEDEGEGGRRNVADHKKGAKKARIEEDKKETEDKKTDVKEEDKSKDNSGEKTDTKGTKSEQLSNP
T6 sequence (P56524 whole entry): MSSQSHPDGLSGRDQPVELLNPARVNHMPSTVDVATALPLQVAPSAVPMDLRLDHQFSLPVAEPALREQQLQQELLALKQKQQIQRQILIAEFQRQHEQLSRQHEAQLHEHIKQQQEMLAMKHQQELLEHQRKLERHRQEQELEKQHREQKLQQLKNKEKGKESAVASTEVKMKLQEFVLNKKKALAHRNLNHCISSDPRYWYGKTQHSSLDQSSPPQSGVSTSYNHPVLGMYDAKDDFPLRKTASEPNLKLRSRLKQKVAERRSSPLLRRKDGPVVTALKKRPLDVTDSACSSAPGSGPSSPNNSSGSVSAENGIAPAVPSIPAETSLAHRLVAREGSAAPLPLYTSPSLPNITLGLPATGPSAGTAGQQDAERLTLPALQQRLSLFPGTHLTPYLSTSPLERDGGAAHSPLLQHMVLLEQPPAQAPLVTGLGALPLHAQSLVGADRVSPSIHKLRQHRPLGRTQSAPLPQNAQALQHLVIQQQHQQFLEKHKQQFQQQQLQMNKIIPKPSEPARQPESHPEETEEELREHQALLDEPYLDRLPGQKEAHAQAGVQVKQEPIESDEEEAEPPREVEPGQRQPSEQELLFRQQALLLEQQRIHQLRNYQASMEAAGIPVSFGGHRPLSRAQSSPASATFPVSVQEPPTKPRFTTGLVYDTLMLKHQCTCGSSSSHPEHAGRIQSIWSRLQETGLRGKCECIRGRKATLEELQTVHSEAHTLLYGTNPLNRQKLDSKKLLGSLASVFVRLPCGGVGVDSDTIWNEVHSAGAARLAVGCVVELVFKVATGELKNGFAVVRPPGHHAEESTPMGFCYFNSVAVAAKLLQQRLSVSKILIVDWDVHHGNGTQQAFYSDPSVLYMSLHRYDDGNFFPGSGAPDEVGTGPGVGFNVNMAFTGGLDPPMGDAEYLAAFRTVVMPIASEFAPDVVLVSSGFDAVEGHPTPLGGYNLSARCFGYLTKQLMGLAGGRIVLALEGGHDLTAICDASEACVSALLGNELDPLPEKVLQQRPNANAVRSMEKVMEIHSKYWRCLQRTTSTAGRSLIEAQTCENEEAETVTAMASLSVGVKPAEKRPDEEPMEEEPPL
T8 sequence (Q9UKV0 whole entry): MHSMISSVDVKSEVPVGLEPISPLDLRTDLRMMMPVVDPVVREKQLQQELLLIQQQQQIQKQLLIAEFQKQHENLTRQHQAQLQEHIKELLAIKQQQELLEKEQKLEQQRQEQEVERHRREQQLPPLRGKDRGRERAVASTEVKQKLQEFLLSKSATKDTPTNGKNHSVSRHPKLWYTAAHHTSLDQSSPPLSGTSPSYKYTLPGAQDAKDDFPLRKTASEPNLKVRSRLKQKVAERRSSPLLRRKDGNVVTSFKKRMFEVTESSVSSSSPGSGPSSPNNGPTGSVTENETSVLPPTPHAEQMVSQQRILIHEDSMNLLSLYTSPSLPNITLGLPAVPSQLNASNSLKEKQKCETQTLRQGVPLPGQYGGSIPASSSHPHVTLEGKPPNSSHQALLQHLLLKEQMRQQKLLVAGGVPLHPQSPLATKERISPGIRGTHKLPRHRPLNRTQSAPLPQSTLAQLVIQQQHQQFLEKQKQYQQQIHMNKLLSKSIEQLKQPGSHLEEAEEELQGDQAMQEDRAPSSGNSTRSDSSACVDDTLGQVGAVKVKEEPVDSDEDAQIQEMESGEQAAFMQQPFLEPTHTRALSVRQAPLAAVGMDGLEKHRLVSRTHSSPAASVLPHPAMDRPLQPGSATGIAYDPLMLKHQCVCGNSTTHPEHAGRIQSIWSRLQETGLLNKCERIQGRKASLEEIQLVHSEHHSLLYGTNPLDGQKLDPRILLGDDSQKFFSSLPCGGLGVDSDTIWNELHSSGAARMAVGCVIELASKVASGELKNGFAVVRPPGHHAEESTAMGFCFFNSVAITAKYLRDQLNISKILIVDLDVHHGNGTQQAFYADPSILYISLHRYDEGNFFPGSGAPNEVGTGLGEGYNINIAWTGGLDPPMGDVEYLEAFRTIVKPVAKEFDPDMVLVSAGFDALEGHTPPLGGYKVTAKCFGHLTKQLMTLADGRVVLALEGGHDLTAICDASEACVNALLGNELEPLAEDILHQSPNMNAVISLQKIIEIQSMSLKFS

## O=C(/C=C/c1ccc(CN(CCOCCOCCNc2cccc3c2C(=O)N(C2CCC(=O)NC2=O)C3=O)CCc2c[nH]c3ccccc23)cc1)NO (stereo not shown) [Compound 1, (E)-3-(4-(((2-(1H-indol-3-yl)ethyl)(2-(2-(2-((2-(2,6-dioxopiperidin-3-yl)-1,3-dioxoisoindolin-4-yl)amino)ethoxy)ethoxy)ethyl)amino)methyl)phenyl)-N-hydroxyacrylamide]
[1]; 10-dose response curve, read-out: Compound IC50 (M), HDAC1
  IC50: 1.06e-06 M
[1]; summary of Table 1
  inhibition of enzymatic activity of HDAC1 (in words): Moderate inhibition
[2]; 10-dose response curve, read-out: Compound IC50 (M), HDAC2
  IC50: 3.48e-06 M
[2]; summary of Table 1
  inhibition of enzymatic activity of HDAC2 (in words): Moderate inhibition
[3]; 10-dose response curve, read-out: Compound IC50 (M), HDAC3
  IC50: 1.29e-06 M
[3]; summary of Table 1
  inhibition of enzymatic activity of HDAC3 (in words): Moderate inhibition
[4]; 10-dose response curve, read-out: Compound IC50 (M), HDAC8
  IC50: 4.51e-06 M
[4]; summary of Table 1
  inhibition of enzymatic activity of HDAC8 (in words): potently inhibited; also recorded: Moderate inhibition
[5]; 10-dose response curve, read-out: Compound IC50 (M), HDAC5
  IC50: > 2e-05 M
[5]; summary of Table 1
  inhibition of enzymatic activity of HDAC5 (in words): did not inhibit
[6]
  inhibition of enzymatic activity of HDAC4 (in words): did not inhibit
[7]
  inhibition of enzymatic activity of HDAC7 (in words): did not inhibit
[8]
  inhibition of enzymatic activity of HDAC9 (in words): did not inhibit
